Measurements as given in ChEMBL document CHEMBL4130493, “An insight into the biological activities of heterocyclic-fatty acid hybrid molecules” (Eur J Med Chem, 2017).
≈ marks a conversion by molar mass, not a printed value.

Legend:
Plasmodium falciparum = experiment: Antimalarial activity against Plasmodium falciparum infected in erythrocytes assessed as inhibition of increase in parasite density after 72 hrs; type: functional, organism-based
Staphylococcus aureus [1] = experiment: Antibacterial activity against Staphylococcus aureus MSSA 22 incubated for 24 hrs by filter paper disc method; type: functional
Pseudomonas aeruginosa [2] = experiment: Antibacterial activity against Pseudomonas aeruginosa incubated for 24 hrs by filter paper disc method; type: functional
Escherichia coli [3] = experiment: Antibacterial activity against Escherichia coli K-12 incubated for 24 hrs by filter paper disc method; type: functional
Bacillus subtilis [4] = experiment: Antibacterial activity against Bacillus subtilis MTCC 121 incubated for 24 hrs by filter paper disc method; type: functional
Escherichia coli [5] = experiment: Antibacterial activity against Escherichia coli MTCC 40 incubated for 24 hrs by serial two-fold dilution method; type: functional; details: MTCC 40, 24 h
Pseudomonas aeruginosa [6] = experiment: Antibacterial activity against Pseudomonas aeruginosa MTCC 2453 incubated for 24 hrs by serial two-fold dilution method; type: functional; details: MTCC 2453, 24 h
Staphylococcus aureus [7] = experiment: Antibacterial activity against Staphylococcus aureus MSSA 22 at 100 ug/mL incubated for 24 hrs by filter paper disc method; type: functional; details: MSSA 22, 24 h, read-out: DIZ
Escherichia coli [8] = experiment: Antibacterial activity against Escherichia coli K-12 at 100 ug/mL incubated for 24 hrs by filter paper disc method; type: functional; details: K-12, 24 h, read-out: DIZ
Candida albicans = experiment: Antifungal activity against Candida albicans IOA-109 at 100 ug/mL incubated for 18 to 48 hrs by agar disc diffusion method; type: functional; details: read-out: DIZ
Salmonella typhimurium = experiment: Antibacterial activity against Salmonella typhimurium MTCC98 at 100 ug/mL incubated for 24 hrs by filter paper disc method; type: functional, Salmonella enterica subsp. enterica serovar Typhimurium; details: Salmonella enterica, MTCC98, 24 h; read-out: DIZ
Bacillus subtilis [9] = experiment: Antibacterial activity against Bacillus subtilis ATCC 6051 at 100 ug/mL incubated for 24 hrs by filter paper disc method; type: functional; details: ATCC 6051, 24 h, read-out: DIZ
A549 = experiment: Cytotoxicity in human A549 cells by SRB assay; type: functional; details: read-out: TC50 (the source's name)

| SMILES | MIC (Escherichia coli [5]) [µg/mL] | MIC (Pseudomonas aeruginosa [6]) [µg/mL] | zone of inhibition at 100 µg/mL (Staphylococcus aureus [7]) [mm] | zone of inhibition at 100 µg/mL (Escherichia coli [8]) [mm] | zone of inhibition at 100 µg/mL (Candida albicans) [mm] | zone of inhibition at 100 µg/mL (Salmonella typhimurium) [mm] | zone of inhibition at 100 µg/mL (Bacillus subtilis [9]) [mm] | also measured |
| --- | --- | --- | --- | --- | --- | --- | --- | --- |
| C=C[C@H]1CN2CC[C@H]1C[C@H]2[C@H](OCCCCCCCCCCCC)c1ccnc2ccc(OC)cc12 | – | – | – | – | – | – | – | EC50 (Plasmodium falciparum): 7 to 20 µM |
| CCCCCCCC(O)CC/C=C\CCCCC(=O)n1[nH]c(=O)c2ccccc2c1=O (stereo unspecified) | – | – | – | – | – | – | – | diameter of the inhibition zone (DIZ) (Staphylococcus aureus [1]): 10 - 18 mm; diameter of the inhibition zone (DIZ) (Pseudomonas aeruginosa [2]): 10 - 18 mm; diameter of the inhibition zone (DIZ) (Escherichia coli [3]): 15 - 18 mm; diameter of the inhibition zone (DIZ) (Bacillus subtilis [4]): 10 - 18 mm |
| CCCCCCC/C=C\CC(O)CCCCCCC(=O)n1[nH]c(=O)c2ccccc2c1=O (stereo unspecified) | – | – | – | – | – | – | – | diameter of the inhibition zone (DIZ) (Staphylococcus aureus [1]): 10 - 18 mm; diameter of the inhibition zone (DIZ) (Pseudomonas aeruginosa [2]): 10 - 18 mm; diameter of the inhibition zone (DIZ) (Escherichia coli [3]): 15 - 18 mm; diameter of the inhibition zone (DIZ) (Bacillus subtilis [4]): 10 - 18 mm |
| CCCCCCCCCCCCCCCC(=O)NN1C(=O)CSC1c1ccc(Br)cc1 (stereo unspecified) | 0.35 to 0.7 (≈ 0.684 to 1.37 µM) | 0.35 to 0.7 (≈ 0.684 to 1.37 µM) | – | – | – | – | – | – |
| CCCCCCCCCCCCCCCC(=O)NN1C(=O)CSC1c1ccc(Cl)cc1 (stereo unspecified) | 0.35 to 0.7 (≈ 0.749 to 1.5 µM) | 0.35 to 0.7 (≈ 0.749 to 1.5 µM) | – | – | – | – | – | – |
| CCCCCCCCCCCCCCCC(=O)NN1C(=O)CSC1c1ccccc1 (stereo unspecified) | 0.35 to 0.7 (≈ 0.809 to 1.62 µM) | 0.35 to 0.7 (≈ 0.809 to 1.62 µM) | – | – | – | – | – | – |
| C=CCCCCCCCCc1nc(-c2ccccc2)n[nH]1 | – | – | 13.1 to 22.2 | 13.1 to 22.2 | 17.2 to 19 | 13.1 to 22.2 | 13.1 to 22.2 | – |
| CCCCCCCCCCCCCC(=O)NN1C(=O)CSC1c1ccc(F)cc1 (stereo unspecified) | 0.35 to 0.7 (≈ 0.828 to 1.66 µM) | 0.35 to 0.7 (≈ 0.828 to 1.66 µM) | – | – | – | – | – | – |
| CCCCCCCC/C=C\CCCCCCCc1nc(-c2ccc(O)c(O)c2)n[nH]1 | – | – | 13.1 to 22.2 | 13.1 to 22.2 | 17.2 to 19 | 13.1 to 22.2 | 13.1 to 22.2 | – |
| CCCCCCCCCCCCCC(=O)NN1C(=O)CSC1c1ccccc1 (stereo unspecified) | 0.35 to 0.7 (≈ 0.865 to 1.73 µM) | 0.35 to 0.7 (≈ 0.865 to 1.73 µM) | – | – | – | – | – | – |
| CCCCCCCCCCCCCC(=O)NN1C(=O)CSC1c1ccc(O)cc1 (stereo unspecified) | 0.35 to 0.7 (≈ 0.832 to 1.66 µM) | 0.35 to 0.7 (≈ 0.832 to 1.66 µM) | – | – | – | – | – | – |
| CCCCCCCC/C=C\CCCCCCCc1nc(-c2ccccc2)n[nH]1 | – | – | 13.1 to 22.2 | 13.1 to 22.2 | 17.2 to 19 | 13.1 to 22.2 | 13.1 to 22.2 | – |
| CCCCCCC(O)C/C=C\CCCCCCCc1nc(-c2ccc(O)c(O)c2)n[nH]1 (stereo unspecified) | – | – | 13.1 to 22.2 | 13.1 to 22.2 | 17.2 to 19 | 13.1 to 22.2 | 13.1 to 22.2 | – |
| CCCCC/C=C\CCC(O)CCCCCCCc1nc(-c2cccc(O)c2)n[nH]1 (stereo unspecified) | – | – | 13.1 to 22.2 | 13.1 to 22.2 | 17.2 to 19 | 13.1 to 22.2 | 13.1 to 22.2 | – |
| CCCCCCCCCCCCCCCC(=O)NN1C(=O)CSC1c1ccc(F)cc1 (stereo unspecified) | 0.35 to 0.7 (≈ 0.777 to 1.55 µM) | 0.35 to 0.7 (≈ 0.777 to 1.55 µM) | – | – | – | – | – | – |
| C=C[C@H]1CN2CC[C@H]1C[C@H]2[C@H](O/C=C/C=C/CCCCCCCCCCCCCC)c1ccnc2ccc(OC)cc12 | – | – | – | – | – | – | – | EC50 (Plasmodium falciparum): 7 to 20 µM |
| CCCCCCCCCCCCCCCCCc1nnc(S)n1N | – | – | – | – | – | – | – | CC50 (A549): 0.282 µM |
| CCCCCCCCCCCCCC(=O)NN1C(=O)CSC1c1ccc(OC)cc1 (stereo unspecified) | 0.35 to 0.7 (≈ 0.805 to 1.61 µM) | 0.35 to 0.7 (≈ 0.805 to 1.61 µM) | – | – | – | – | – | – |
| C=CCCCCCCCCc1nc(-c2ccc(O)c(O)c2)n[nH]1 | – | – | 13.1 to 22.2 | 13.1 to 22.2 | 17.2 to 19 | 13.1 to 22.2 | 13.1 to 22.2 | – |
| CCCCCCCCCCCCCCCCCc1nnc(S)o1 | – | – | – | – | – | – | – | CC50 (A549): 0.143 µM |
| CCCCCCC(O)C/C=C\CCCCCCCc1nc(-c2ccccc2)n[nH]1 (stereo unspecified) | – | – | 13.1 to 22.2 | 13.1 to 22.2 | 17.2 to 19 | 13.1 to 22.2 | 13.1 to 22.2 | – |
| CCCCCCCCCCCCCCCC(=O)NN1C(=O)CSC1c1ccc(OC)cc1 (stereo unspecified) | 0.35 to 0.7 (≈ 0.756 to 1.51 µM) | 0.35 to 0.7 (≈ 0.756 to 1.51 µM) | – | – | – | – | – | – |
| CCCCCCCCCCCCCC(=O)NN1C(=O)CSC1c1ccc(Cl)cc1 (stereo unspecified) | 0.35 to 0.7 (≈ 0.797 to 1.59 µM) | 0.35 to 0.7 (≈ 0.797 to 1.59 µM) | – | – | – | – | – | – |
| CCCCCCCCCCCCCCCC(=O)NN1C(=O)CSC1c1ccc([N+](=O)[O-])cc1 (stereo unspecified) | 0.35 to 0.7 (≈ 0.733 to 1.47 µM) | 0.35 to 0.7 (≈ 0.733 to 1.47 µM) | – | – | – | – | – | – |
| CCCCCCC(O)C/C=C\CCCCCCCc1nc(-c2cccc(O)c2)n[nH]1 (stereo unspecified) | – | – | 13.1 to 22.2 | 13.1 to 22.2 | 17.2 to 19 | 13.1 to 22.2 | 13.1 to 22.2 | – |
| CCCCCCCCCCCCCCCC(=O)NN1C(=O)CSC1c1ccc(O)cc1 (stereo unspecified) | 0.35 to 0.7 (≈ 0.78 to 1.56 µM) | 0.35 to 0.7 (≈ 0.78 to 1.56 µM) | – | – | – | – | – | – |
